Test results: patent US20090247559A1 (Exelixis, Inc., priority 2007, published 2009)
Where two headings read alike, the source gives them in different places.

Key:
[1] = molecular target: CDC7 (Homo sapiens, UniProt O00311); experiment: CDC7 inhibition, biochemical chemiluminescence assay (Kinase Glo, IC50 determination)
Method in brief: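 CDC7 enzyme preincubated with compound 10 min at ambient temperature, then ATP mix in Tris Base added; reaction 90 min at 24-27 °C. Remaining ATP quantified by Kinase Glo luminescence to give IC50.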

[2] = molecular target: PIM (PIM-1, PIM-2, and/or PIM-3); experiment: PIM-1, PIM-2 and PIM-3 inhibition, biochemical chemiluminescence assays (Kinase Glo, IC50 determination); conditions: Table 1 activity class; PIM refers to PIM-1, PIM-2, and/or PIM-3; read-out: PIM IC50 (Activity B)
[3] = molecular target: CK2 (Homo sapiens, UniProt P68400); experiment: CK2 inhibition, biochemical chemiluminescence holoenzyme assay (Kinase Glo, IC50 determination); conditions: Table 1 activity class; symbol given only if active; read-out: CK2 IC50 (Activity C)
Chain of CK2 (P68400 whole entry): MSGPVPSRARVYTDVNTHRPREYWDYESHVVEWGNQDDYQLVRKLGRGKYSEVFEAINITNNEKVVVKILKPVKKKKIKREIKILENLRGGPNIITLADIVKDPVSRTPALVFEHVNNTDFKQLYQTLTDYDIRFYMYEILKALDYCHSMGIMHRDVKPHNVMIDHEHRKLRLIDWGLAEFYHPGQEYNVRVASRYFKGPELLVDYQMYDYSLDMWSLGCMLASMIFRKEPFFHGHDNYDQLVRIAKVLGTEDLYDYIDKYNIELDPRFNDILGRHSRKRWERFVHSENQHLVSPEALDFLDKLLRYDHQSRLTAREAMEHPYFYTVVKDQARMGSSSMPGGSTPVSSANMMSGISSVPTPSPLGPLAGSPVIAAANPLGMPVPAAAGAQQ
Chain of CK2 (P67870 whole entry partner): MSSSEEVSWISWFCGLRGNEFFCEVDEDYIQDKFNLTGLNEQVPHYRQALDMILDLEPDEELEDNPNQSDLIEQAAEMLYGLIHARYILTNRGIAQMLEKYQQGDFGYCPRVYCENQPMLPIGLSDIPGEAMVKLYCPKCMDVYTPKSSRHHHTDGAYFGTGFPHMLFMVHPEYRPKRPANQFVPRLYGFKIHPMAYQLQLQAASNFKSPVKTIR
Method in brief: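 Holoenzyme CK2 assay; compounds pre-incubated with substrate and enzyme, then reacted 150 min at 24-27° C. Remaining ATP measured as luminescence with Kinase Glo, and IC50 derived from the signal.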

[4] = Table 1 activity class, symbol given only if active, read-out: CDC7 IC50 (Activity A)
[5] = compounds in Table 1, read-out: CDC7 IC50 value

Chain of CDC7 (O00311 whole entry): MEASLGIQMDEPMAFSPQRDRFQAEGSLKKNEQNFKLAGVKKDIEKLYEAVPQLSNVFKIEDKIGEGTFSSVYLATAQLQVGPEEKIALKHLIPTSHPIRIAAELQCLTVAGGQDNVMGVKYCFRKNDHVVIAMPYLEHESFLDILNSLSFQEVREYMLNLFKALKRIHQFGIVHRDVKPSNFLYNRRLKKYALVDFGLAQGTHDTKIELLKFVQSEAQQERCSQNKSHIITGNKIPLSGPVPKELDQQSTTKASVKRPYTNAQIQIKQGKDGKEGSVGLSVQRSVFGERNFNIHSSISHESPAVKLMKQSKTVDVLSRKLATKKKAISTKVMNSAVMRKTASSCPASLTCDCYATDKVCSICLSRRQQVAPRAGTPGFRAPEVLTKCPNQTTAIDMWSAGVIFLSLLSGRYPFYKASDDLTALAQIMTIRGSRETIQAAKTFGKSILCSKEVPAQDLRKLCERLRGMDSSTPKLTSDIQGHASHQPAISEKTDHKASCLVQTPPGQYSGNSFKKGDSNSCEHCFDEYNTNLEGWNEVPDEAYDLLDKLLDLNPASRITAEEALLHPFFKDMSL
Chain of CDC7 (Q9UBU7 whole entry partner): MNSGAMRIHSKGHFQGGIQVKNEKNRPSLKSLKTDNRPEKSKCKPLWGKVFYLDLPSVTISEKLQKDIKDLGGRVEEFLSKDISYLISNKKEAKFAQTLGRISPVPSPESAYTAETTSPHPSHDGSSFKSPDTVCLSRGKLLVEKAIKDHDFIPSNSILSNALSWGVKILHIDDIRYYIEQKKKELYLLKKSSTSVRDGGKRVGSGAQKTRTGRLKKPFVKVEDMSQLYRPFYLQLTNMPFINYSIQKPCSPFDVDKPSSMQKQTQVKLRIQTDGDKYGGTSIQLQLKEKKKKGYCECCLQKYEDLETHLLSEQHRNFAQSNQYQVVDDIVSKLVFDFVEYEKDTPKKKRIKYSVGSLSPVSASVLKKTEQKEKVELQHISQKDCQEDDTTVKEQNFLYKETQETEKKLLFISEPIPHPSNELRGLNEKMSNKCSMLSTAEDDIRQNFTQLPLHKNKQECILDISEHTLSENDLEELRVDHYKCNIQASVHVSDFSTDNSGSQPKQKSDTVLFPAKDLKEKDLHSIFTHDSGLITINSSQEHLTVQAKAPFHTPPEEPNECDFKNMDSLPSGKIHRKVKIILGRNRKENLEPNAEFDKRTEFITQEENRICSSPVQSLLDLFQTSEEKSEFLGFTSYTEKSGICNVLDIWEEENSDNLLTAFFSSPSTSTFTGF

Row | SMILES | IC50 [1, 4] [µM] | IC50 [2] [µM] | IC50 [3] [µM] | IC50 [1, 5] [µM]
1 | CO[C@H]1CCN(Cc2nc3c(oc4ccc(Br)cc43)c(=O)[nH]2)C1 [Compound 369, 8-bromo-2-{[(3S)-3-(methyloxy)pyrrolidin-1-yl]methyl}[1]benzofuro[3,2-d]pyrimidin-4(3H)-one] | < 10 | < 10 | < 10 | < 0.1
2 | O=C(O)C1CN(Cc2nc3c(oc4ccc(Br)cc43)c(=O)[nH]2)C1 [Compound 370, 1-[(8-bromo-4-oxo-3,4-dihydro[1]benzofuro[3,2-d]pyrimidin-2-yl)methyl]azetidine-3-carboxylic acid] | < 10 | < 10 | < 10 | 
3 | O=C(Nc1ccc(-c2nc3c(oc4ccc(Br)cc43)c(=O)[nH]2)c(Cl)c1)c1ncco1 [Compound 373, N-[4-(8-bromo-4-oxo-3,4-dihydro[1]benzofuro[3,2-d]pyrimidin-2-yl)-3-chlorophenyl]-1,3-oxazole-2-carboxamide] | < 10 | < 10 | < 10 | 
4 | O=C(Nc1ccc(-c2nc3c(oc4ccc(Br)cc43)c(=O)[nH]2)c(Cl)c1)c1cnco1 [Compound 374, N-[4-(8-bromo-4-oxo-3,4-dihydro[1]benzofuro[3,2-d]pyrimidin-2-yl)-3-chlorophenyl]-1,3-oxazole-5-carboxamide] | < 10 | < 10 | < 10 | 
5 | O=c1[nH]c(-c2cccc3c2CCNC3)nc2c1oc1ccc(Br)cc12 [Compound 375, 8-Bromo-2-(1,2,3,4-tetrahydroisoquinolin-5-yl)[1]benzofuro[3,2-d]pyrimidin-4(3H)-one] | < 10 | < 10 | < 10 | < 0.1
6 | O=c1[nH]c(-c2cnc3cc(C4CCNCC4)nn3c2)nc2c1oc1ccc(Br)cc12 [Compound 377, 8-Bromo-2-(2-piperidin-4-ylpyrazolo[1,5-a]pyrimidin-6-yl)[1]benzofuro[3,2-d]pyrimidin-4(3H)-one] | < 10 | < 10 | < 10 | 
7 | NC1CCCC(c2nc3c(oc4ccc(Br)cc43)c(=O)[nH]2)C1 (stereo not drawn) [Compound 380, 2-(3-aminocyclohexyl)-8-bromo[1]benzofuro[3,2-d]pyrimidin-4(3H)-one] | < 10 | < 10 | < 10 | < 0.1

Other lines, results leading:

Row | IC50 [1, 4] [µM] | IC50 [2] [µM] | IC50 [3] [µM] | IC50 [1, 5] [µM] | SMILES
8 | < 10 | < 10 | < 10 |  | Cc1cc(C(=O)Nc2ccc(-c3nc4c(oc5ccc(Br)cc54)c(=O)[nH]3)c(Cl)c2)no1 [Compound 362, N-[4-(8-bromo-4-oxo-3,4-dihydro[1]benzofuro[3,2-d]pyrimidin-2-yl)-3-chlorophenyl]-5-methylisoxazole-3-carboxamide]
9 | < 10 | < 10 | < 10 |  | O=C(Nc1ccc(-c2nc3c(oc4ccc(Br)cc43)c(=O)[nH]2)c(Cl)c1)c1ccon1 [Compound 363, N-[4-(8-bromo-4-oxo-3,4-dihydro[1]benzofuro[3,2-d]pyrimidin-2-yl)-3-chlorophenyl]isoxazole-3-carboxamide]
10 | < 10 | < 10 | < 10 | < 0.1 | CC(=O)N[C@@H]1CCN(Cc2nc3c(oc4ccc(Br)cc43)c(=O)[nH]2)C1 [Compound 364, N-{(3R)-1-[(8-bromo-4-oxo-3,4-dihydro[1]benzofuro[3,2-d]pyrimidin-2-yl)methyl]pyrrolidin-3-yl}acetamide]
11 | < 10 | < 10 | < 10 | < 0.1 | O=c1[nH]c(CN2CCC[C@H]2CO)nc2c1oc1ccc(Br)cc12 [Compound 366, 8-bromo-2-{[(2S)-2-(hydroxymethyl)pyrrolidin-1-yl]methyl}[1]benzofuro[3,2-d]pyrimidin-4(3H)-one]
12 | < 10 | < 10 | < 10 | < 0.1 | O=C(O)C1(O)CCN(Cc2nc3c(oc4ccc(Br)cc43)c(=O)[nH]2)C1 (stereo not drawn) [Compound 368, 1-[(8-bromo-4-oxo-3,4-dihydro[1]benzofuro[3,2-d]pyrimidin-2-yl)methyl]-3-hydroxypyrrolidine-3-carboxylic acid]
